Measurements reported in article PMC11971462, “Generation and validation of a novel multitarget small molecule in glioblastoma” (Cell Death & Disease, 2025).

Test system: GNS166 cells
Assay: Label-free proteomics differential expression
Type: cell-based, human
Protocol: Proteomic studies were performed by the Proteomics Facility of the CIC bioGUNE by label-free relative quantification on nLC MS/MS. […] In both approaches, the top 20 enriched terms were plotted and the pathways were clustered using divisive hierarchical clustering based on pairwise Jaccard distances.

With `C#CCN(Cc1cc2cc(OCCCN3CCCCC3)ccc2n1S(=O)(=O)c1ccccc1)C(=O)CCCCCCC(=O)NO` [DDI] the “LogFC STAU1_HUMAN” value (protein O95793) was -0.5064, the “LogFC BPNT1_HUMAN” value (protein O95861 GN=BPNT1) was 0.8709 and the “Direction MBD3_HUMAN” value (protein O95983) was “Down”. The “LogFC MBD3_HUMAN” value (protein O95983) was -1.39, the “Direction ZBED1_HUMAN” value (protein O96006) was “Down” and the “LogFC ZBED1_HUMAN” value (protein O96006) was -1.855. The “Direction NSD2_HUMAN” value (protein O96028) was “Down”, the “LogFC NSD2_HUMAN” value (protein O96028) was -2.1573 and the “LogFC TPC2B_HUMAN” value (protein P0DI82 GN=TRAPPC2B) was 1.676. For the same compound, the “LogFC HS71A_HUMAN” value (protein P0DMV8 GN=HSPA1A) was 0.6446, the “LogFC AL1A1_HUMAN” value (protein P00352 GN=ALDH1A1) was 1.798 and the “Direction EGFR_HUMAN” value (protein P00533) was “Down”. For the same compound, the “LogFC EGFR_HUMAN” value (protein P00533) was -0.977, the “LogFC TPA_HUMAN” value (protein P00750 GN=PLAT) was 1.254 and the “LogFC CAH2_HUMAN” value (protein P00918 GN=CA2) was 2.905. For the same compound, the “LogFC LDLR_HUMAN” value (protein P01130 GN=LDLR) was -1.436, the “LogFC TFR1_HUMAN” value (protein P02786 GN=TFRC) was 0.6801 and the “LogFC TRFE_HUMAN” value (protein P02787 GN=TF) was 1.471. For the same compound, the “LogFC FRIL_HUMAN” value (protein P02792 GN=FTL) was 2.1013, the “LogFC GLCM_HUMAN” value (protein P04062 GN=GBA) was 1.34 and the “Direction ANXA1_HUMAN” value (protein P04083) was “Down”. For the same compound, the “LogFC ANXA1_HUMAN” value (protein P04083) was -0.1864, the “LogFC OAT_HUMAN” value (protein P04181 GN=OAT) was 0.8669 and the “LogFC TBB4A_HUMAN” value (protein P04350 GN=TUBB4A) was 2.022. For the same compound, the “LogFC AT1B1_HUMAN” value (protein P05026 GN=ATP1B1) was 0.7382, the “LogFC CHLE_HUMAN” value (protein P06276 GN=BCHE) was 1.793 and the “LogFC GELS_HUMAN” value (protein P06396 GN=GSN) was 1.338. The “Direction CDK1_HUMAN” value (protein P06493) was “Down”, the “LogFC CDK1_HUMAN” value (protein P06493) was -2.828 and the “LogFC H10_HUMAN” value (protein P07305 GN=H1-0) was 2.4177. For the same compound, the “Direction CAN1_HUMAN” value (protein P07384) was “Down”, the “LogFC CAN1_HUMAN” value (protein P07384) was -0.5477 and the “LogFC HEXB_HUMAN” value (protein P07686 GN=HEXB) was 2.1461. For the same compound, the “LogFC TNR16_HUMAN” value (protein P08138 GN=NGFR) was 4.357, the “LogFC ASNS_HUMAN” value (protein P08243 GN=ASNS) was 0.9749 and the “LogFC ANXA5_HUMAN” value (protein P08758 GN=ANXA5) was 0.5383. The “Direction SRP19_HUMAN” value (protein P09132) was “Down”, the “LogFC SRP19_HUMAN” value (protein P09132) was -0.7201 and the “Direction HMGB1_HUMAN” value (protein P09429) was “Down”. For the same compound, the “LogFC HMGB1_HUMAN” value (protein P09429) was -0.3836, the “LogFC SPRC_HUMAN” value (protein P09486 GN=SPARC) was 0.9159 and the “Direction DPOLA_HUMAN” value (protein P09884) was “Down”. For the same compound, the “LogFC DPOLA_HUMAN” value (protein P09884) was -0.7754, the “LogFC TZAP_HUMAN” value (protein P10074 GN=ZBTB48) was 0.6846 and the “LogFC LYAG_HUMAN” value (protein P10253 GN=GAA) was 1.719. For the same compound, the “LogFC RRAS_HUMAN” value (protein P10301 GN=RRAS) was 1.8337, the “Direction COT1_HUMAN” value (protein P10589) was “Down” and the “LogFC COT1_HUMAN” value (protein P10589) was -2.0511. For the same compound, the “LogFC PPGB_HUMAN” value (protein P10619 GN=CTSA) was 1.238, the “LogFC LAMC1_HUMAN” value (protein P11047 GN=LAMC1) was 1.296 and the “LogFC MTAP2_HUMAN” value (protein P11137 GN=MAP2) was 1.918. The “Direction GTR1_HUMAN” value (protein P11166) was “Down”, the “LogFC GTR1_HUMAN” value (protein P11166) was -1.063 and the “LogFC GTR3_HUMAN” value (protein P11169 GN=SLC2A3) was 0.7017. For the same compound, the “Direction PYGM_HUMAN” value (protein P11217) was “Down”, the “LogFC PYGM_HUMAN” value (protein P11217) was -1.18 and the “LogFC LAMP1_HUMAN” value (protein P11279 GN=LAMP1) was 0.9125. The “Direction TOP2A_HUMAN” value (protein P11388) was “Down”, the “LogFC TOP2A_HUMAN” value (protein P11388) was -2.075 and the “LogFC G6PD_HUMAN” value (protein P11413 GN=G6PD) was 0.8016. For the same compound, the “LogFC PRPS2_HUMAN” value (protein P11908 GN=PRPS2) was 1.0339, the “Direction COBA1_HUMAN” value (protein P12107) was “Down” and the “LogFC COBA1_HUMAN” value (protein P12107) was -0.989. For the same compound, the “Direction CO6A1_HUMAN” value (protein P12109) was “Down”, the “LogFC CO6A1_HUMAN” value (protein P12109) was -2.398 and the “LogFC LAMP2_HUMAN” value (protein P13473 GN=LAMP2) was 0.7741. For the same compound, the “LogFC MTDC_HUMAN” value (protein P13995 GN=MTHFD2) was 1.415, the “LogFC CBPM_HUMAN” value (protein P14384 GN=CPM) was 1.371 and the “Direction CCNB1_HUMAN” value (protein P14635) was “Down”. The “LogFC CCNB1_HUMAN” value (protein P14635) was -2.713, the “LogFC ARSA_HUMAN” value (protein P15289 GN=ARSA) was 0.8733 and the “LogFC NQO2_HUMAN” value (protein P16083 GN=NQO2) was 1.439. For the same compound, the “Direction ITB4_HUMAN” value (protein P16144) was “Down”, the “LogFC ITB4_HUMAN” value (protein P16144) was -1.613 and the “LogFC CBR1_HUMAN” value (protein P16152 GN=CBR1) was 1.143. The “Direction ANK1_HUMAN” value (protein P16157) was “Down”, the “LogFC ANK1_HUMAN” value (protein P16157) was -1.996 and the “Direction GCFC2_HUMAN” value (protein P16383) was “Down”. For the same compound, the “LogFC GCFC2_HUMAN” value (protein P16383) was -2.09, the “LogFC SYN1_HUMAN” value (protein P17600 GN=SYN1) was 2.1979 and the “Direction CAN2_HUMAN” value (protein P17655) was “Down”. The “LogFC CAN2_HUMAN” value (protein P17655) was -0.5036, the “LogFC DDX5_HUMAN” value (protein P17844 GN=DDX5) was -0.6799 and the “Direction PFKAL_HUMAN” value (protein P17858) was “Down”. The “LogFC PFKAL_HUMAN” value (protein P17858) was -0.5357, the “Direction ITB5_HUMAN” value (protein P18084) was “Down” and the “LogFC ITB5_HUMAN” value (protein P18084) was -1.897. For the same compound, the “Direction SDC1_HUMAN” value (protein P18827) was “Down”, the “LogFC SDC1_HUMAN” value (protein P18827) was -2.102 and the “Direction PLCG1_HUMAN” value (protein P19174) was “Down”. For the same compound, the “LogFC PLCG1_HUMAN” value (protein P19174) was -1.036, the “LogFC RXRA_HUMAN” value (protein P19793 GN=RXRA) was -2.086 and the “Direction MX1_HUMAN” value (protein P20591) was “Down”. The “LogFC MX1_HUMAN” value (protein P20591) was -3.492, the “LogFC FILA_HUMAN” value (protein P20930 GN=FLG) was 2.48 and the “Direction RASA1_HUMAN” value (protein P20936) was “Down”. The “LogFC RASA1_HUMAN” value (protein P20936) was -0.7321, the “LogFC VATB2_HUMAN” value (protein P21281 GN=ATP6V1B2) was 1.09 and the “LogFC VATC1_HUMAN” value (protein P21283 GN=ATP6V1C1) was 0.7781. The “LogFC AOFA_HUMAN” value (protein P21397 GN=MAOA) was 0.8861, the “LogFC ACOC_HUMAN” value (protein P21399 GN=ACO1) was 0.9989 and the “LogFC TGM2_HUMAN” value (protein P21980 GN=TGM2) was 2.278. The “Direction PTPRE_HUMAN” value (protein P23469) was “Down”, the “LogFC PTPRE_HUMAN” value (protein P23469) was -2.558 and the “Direction RIR1_HUMAN” value (protein P23921) was “Down”. The “LogFC RIR1_HUMAN” value (protein P23921) was -1.151, the “Direction MCM3_HUMAN” value (protein P25205) was “Down” and the “LogFC MCM3_HUMAN” value (protein P25205) was -0.4173. The “LogFC MOES_HUMAN” value (protein P26038 GN=MSN) was -0.6643, the “Direction DNMT1_HUMAN” value (protein P26358) was “Down” and the “LogFC DNMT1_HUMAN” value (protein P26358) was -0.8972. The “Direction HMGB2_HUMAN” value (protein P26583) was “Down”, the “LogFC HMGB2_HUMAN” value (protein P26583) was -0.4752 and the “Direction SYVC_HUMAN” value (protein P26640) was “Down”. The “LogFC SYVC_HUMAN” value (protein P26640) was -0.2125.
